These results are taken from paper PMC10327353 (Breast Cancer Research : BCR, 2023).

Data set [1] in a line: Human hepatocyte intrinsic clearance. The format is in vitro ADME. The note with it: human hepatocytes; for hepatocyte CLint: read-out: Human Heps Clint.
The subject of a further data set is BT474C1 cells. Kind of data set: Cell proliferation assay (CellTiter-Glo), BT474C1. The format is cell-based, human. Particulars: BT474C1, 72 hrs. The procedure: BT474C1-Luci Mono1 cells were seeded in 384-well plates at 1500 cells/well in DMEM medium containing 10% FBS and 1 mM Oxaloacetic acid (OAA). A431 cells were seeded in 384-well plates at 1,000 cells/well in DMEM medium containing 10% FBS. After overnight incubation, cells were treated with compounds at various concentrations for 3 days. Then cell viability was measured using a CellTiter-Glo Luminescent Cell Viability Assay from Promega Corp. according to the manufacturer's instructions.

Another data set has as its target HER2 (Homo sapiens, UniProt P04626). In words: pHER2 MSD assay in BT474C1 cells. The format is cell-based. The arrangement: endogenous in cells; host or cells: BT474C1-Luci Mono1 (BT474 transfected with luciferase only). The note with it: BT474C1, 4 hrs treatment. Here is the method: (§1) A431 and BT474C1-Luci Mono1 cells were seeded in 96-well plates at 20,000 cells/well in DMEM medium containing 1% FBS. After overnight incubation, all cells were treated with compounds at a series of concentrations for 4 hrs. For A431 cell line, an extra stimulation with recombinant human EGF (100 ng/ml for 10 minutes) is applied to activate wild-type EGFR following compound treatment. pEGFR^Y1068 and total EGFR levels were measured by an electro chemiluminescent method (MULTI-SPOT®96 4-Spot HB Prototype EGFR Triplex […]: pEGFR (Y1068), Total EGFR; MESO SCALE DISCOVERY, Cat# N45ZB-1) with MSD SECTOR® Imager, which outputs the ratio of pEGFR/total EGFR for each well. pHER2^Y1248 and total HER2 levels were measured similarly using pHER2 (Y1248) Assay Whole Cell Lysate Kit (MESO SCALE DISCOVERY, Cat# K151CLD-3). The percentage of inhibition was calculated as: % Inhibition = 100 x [1 - (ratio of the sample well - ratio of Min ctrl well)/ (ratio of Max ctrl well - ratio of Min ctrl well)].

A further data set concerns the target T1, P-gp (MDR1) (Homo sapiens, UniProt P08183).
T1 construct: expressed in transfected cells; host or cells: MDCKII-MDR1
In words: P-gp efflux ratio, bi-directional transport assay. The format is in vitro ADME. From the text: Passive permeability (Papp) characterizes the rate across the cell membrane due to passive diffusion. A high permeability enables the rapid establishment of equilibrium among plasma, CSF, and brain compartments. Except for passive permeability, sufficient unbound drug concentration in the brain is governed by efflux transporters, including P-gp (MDR1, ABCB1) and BCRP, at BBB. Efflux ratio (ER) reflects the liability of a compound to be pumped out of the brain by BBB efflux transporters, which is indicated by the distribution disequilibrium between the plasma and the brain compartments.
[…] The adjusted efflux ratio was used to determine if DZD1516/DZ2678 underwent active efflux. Verapamil, a P-glycoprotein (P-gp) inhibitor, was used to identify if any active transport processes were mediated through P-gp. The apical-to-basolateral (A-B) and basolateral-to-apical (B-A) transport of DZD1516/DZ2678 in HBSS (25 mM HEPES, pH 7.4) with 0.1% BSA was measured across MDCKII-MDR1 cell monolayers in the absence and presence of the P-gp inhibitor, verapamil (100 μM). The apical-to-basolateral (A-B) and basolateral-to-apical (B-A) transport of DZD1516/DZ2678 in HBSS (25 mM HEPES, pH 7.4) with 0.1% BSA was also measured across MDCKII cell monolayers in the absence and presence of the P-gp inhibitor, verapamil. Incubations were performed at approximately 37°C for 120 min, with the functionality of the test system being confirmed using 5 μM digoxin as a positive control substrate. […] determined by quantifying substrate concentration in the incubation medium of the donor compartment at the beginning of the incubation period and both donor and receiver compartments at the end of the incubation period. The data was used to calculate the apparent permeability (Papp). All incubations were performed in triplicate, and the integrity of the cell monolayers was confirmed using the marker Lucifer yellow.

For the next data set, the target named is T2, wild-type EGFR (Homo sapiens, UniProt P00533).
T2 construct: endogenous in cells; host or cells: A431
T2 sequence (P00533 25-1210): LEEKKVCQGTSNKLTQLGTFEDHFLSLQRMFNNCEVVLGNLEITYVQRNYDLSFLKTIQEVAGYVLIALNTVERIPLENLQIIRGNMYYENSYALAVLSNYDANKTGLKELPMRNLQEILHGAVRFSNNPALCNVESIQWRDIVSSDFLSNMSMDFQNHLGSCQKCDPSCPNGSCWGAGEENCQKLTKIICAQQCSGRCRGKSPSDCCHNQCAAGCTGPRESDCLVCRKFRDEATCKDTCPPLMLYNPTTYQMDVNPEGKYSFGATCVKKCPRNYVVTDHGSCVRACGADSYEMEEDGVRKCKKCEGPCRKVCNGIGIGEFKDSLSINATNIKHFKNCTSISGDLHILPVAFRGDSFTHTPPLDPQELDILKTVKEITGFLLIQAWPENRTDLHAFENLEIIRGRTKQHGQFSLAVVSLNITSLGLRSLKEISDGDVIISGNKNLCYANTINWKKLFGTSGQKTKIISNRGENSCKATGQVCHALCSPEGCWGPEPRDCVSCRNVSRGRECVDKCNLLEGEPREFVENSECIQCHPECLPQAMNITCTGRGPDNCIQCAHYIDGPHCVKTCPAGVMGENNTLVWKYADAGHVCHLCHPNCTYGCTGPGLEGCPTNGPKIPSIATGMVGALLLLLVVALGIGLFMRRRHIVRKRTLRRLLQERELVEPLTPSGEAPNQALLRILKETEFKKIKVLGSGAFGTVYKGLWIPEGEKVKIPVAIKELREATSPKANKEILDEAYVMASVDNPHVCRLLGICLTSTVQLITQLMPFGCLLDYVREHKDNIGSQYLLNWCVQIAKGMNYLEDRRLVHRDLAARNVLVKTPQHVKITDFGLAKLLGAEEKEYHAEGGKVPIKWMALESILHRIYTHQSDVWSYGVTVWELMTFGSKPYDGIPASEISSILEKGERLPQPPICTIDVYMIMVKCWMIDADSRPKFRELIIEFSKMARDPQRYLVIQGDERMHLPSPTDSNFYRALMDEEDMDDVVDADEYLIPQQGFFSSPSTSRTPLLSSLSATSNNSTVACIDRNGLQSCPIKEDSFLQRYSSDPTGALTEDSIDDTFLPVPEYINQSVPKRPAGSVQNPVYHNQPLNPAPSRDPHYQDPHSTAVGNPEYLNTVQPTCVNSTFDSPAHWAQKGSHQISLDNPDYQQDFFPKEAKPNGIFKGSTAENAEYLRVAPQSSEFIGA
Kind of data set: pEGFR MSD assay in A431 cells. The format is cell-based. Particulars: A431, 4 hrs treatment, EGF stimulation. Here is the method:
as §1

Another data set deals with P-gp-BCRP. In words: P-gp-BCRP efflux ratio, cellular transport assay. The format is in vitro ADME, human. Particulars: human, not told; 1 µM. The procedure:
A discussion of the structure–activity relationship (SAR) cumulated in the design of DZD1516 (Fig. 1) is as follows. The HER2 inhibitory potency screening for SAR development was performed using HER2 and EGFR enzymatic assays. The cellular activity was evaluated in HER2+ cell line BT474C1 by measuring pHER2 and antiproliferation activities. Cellular transport assays measuring the permeability and efflux ratio of compounds in cells expressing human P-gp (MDR1) and BCRP were used to provide essential information for assessing their BBB penetration potential.

HER2, sequence (P04626 23-1255): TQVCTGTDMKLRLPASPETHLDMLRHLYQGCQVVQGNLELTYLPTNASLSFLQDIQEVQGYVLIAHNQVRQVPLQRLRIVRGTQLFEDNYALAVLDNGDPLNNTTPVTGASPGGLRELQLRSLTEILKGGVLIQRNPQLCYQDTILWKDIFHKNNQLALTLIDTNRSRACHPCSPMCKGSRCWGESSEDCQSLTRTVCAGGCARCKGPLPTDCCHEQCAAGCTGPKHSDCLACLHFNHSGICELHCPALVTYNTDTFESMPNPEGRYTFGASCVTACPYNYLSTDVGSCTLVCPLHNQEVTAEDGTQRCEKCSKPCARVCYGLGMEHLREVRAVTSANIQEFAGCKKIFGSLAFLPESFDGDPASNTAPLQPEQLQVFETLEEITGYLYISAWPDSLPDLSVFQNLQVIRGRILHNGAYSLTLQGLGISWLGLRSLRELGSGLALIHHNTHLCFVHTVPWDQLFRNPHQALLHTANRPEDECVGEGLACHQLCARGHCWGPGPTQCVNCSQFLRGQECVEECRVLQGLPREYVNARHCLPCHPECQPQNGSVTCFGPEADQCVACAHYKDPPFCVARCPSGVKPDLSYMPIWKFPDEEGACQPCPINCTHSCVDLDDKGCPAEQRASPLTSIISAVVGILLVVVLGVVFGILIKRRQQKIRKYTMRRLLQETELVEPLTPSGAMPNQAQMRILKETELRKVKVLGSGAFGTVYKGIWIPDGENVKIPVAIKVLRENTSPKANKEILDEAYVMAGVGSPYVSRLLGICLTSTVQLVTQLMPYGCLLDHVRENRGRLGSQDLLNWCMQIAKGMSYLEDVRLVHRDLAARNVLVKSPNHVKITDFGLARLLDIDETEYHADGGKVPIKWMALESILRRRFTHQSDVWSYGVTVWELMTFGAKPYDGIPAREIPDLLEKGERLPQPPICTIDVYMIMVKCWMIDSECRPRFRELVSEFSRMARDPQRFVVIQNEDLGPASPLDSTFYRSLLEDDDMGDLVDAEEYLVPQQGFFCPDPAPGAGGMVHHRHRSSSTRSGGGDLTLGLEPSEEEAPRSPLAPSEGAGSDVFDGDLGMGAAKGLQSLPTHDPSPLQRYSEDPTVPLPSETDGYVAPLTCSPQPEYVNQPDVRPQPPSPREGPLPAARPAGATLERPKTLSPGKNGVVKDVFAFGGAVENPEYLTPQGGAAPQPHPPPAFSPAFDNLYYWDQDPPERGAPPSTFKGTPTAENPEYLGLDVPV
T1 sequence (P08183 whole entry): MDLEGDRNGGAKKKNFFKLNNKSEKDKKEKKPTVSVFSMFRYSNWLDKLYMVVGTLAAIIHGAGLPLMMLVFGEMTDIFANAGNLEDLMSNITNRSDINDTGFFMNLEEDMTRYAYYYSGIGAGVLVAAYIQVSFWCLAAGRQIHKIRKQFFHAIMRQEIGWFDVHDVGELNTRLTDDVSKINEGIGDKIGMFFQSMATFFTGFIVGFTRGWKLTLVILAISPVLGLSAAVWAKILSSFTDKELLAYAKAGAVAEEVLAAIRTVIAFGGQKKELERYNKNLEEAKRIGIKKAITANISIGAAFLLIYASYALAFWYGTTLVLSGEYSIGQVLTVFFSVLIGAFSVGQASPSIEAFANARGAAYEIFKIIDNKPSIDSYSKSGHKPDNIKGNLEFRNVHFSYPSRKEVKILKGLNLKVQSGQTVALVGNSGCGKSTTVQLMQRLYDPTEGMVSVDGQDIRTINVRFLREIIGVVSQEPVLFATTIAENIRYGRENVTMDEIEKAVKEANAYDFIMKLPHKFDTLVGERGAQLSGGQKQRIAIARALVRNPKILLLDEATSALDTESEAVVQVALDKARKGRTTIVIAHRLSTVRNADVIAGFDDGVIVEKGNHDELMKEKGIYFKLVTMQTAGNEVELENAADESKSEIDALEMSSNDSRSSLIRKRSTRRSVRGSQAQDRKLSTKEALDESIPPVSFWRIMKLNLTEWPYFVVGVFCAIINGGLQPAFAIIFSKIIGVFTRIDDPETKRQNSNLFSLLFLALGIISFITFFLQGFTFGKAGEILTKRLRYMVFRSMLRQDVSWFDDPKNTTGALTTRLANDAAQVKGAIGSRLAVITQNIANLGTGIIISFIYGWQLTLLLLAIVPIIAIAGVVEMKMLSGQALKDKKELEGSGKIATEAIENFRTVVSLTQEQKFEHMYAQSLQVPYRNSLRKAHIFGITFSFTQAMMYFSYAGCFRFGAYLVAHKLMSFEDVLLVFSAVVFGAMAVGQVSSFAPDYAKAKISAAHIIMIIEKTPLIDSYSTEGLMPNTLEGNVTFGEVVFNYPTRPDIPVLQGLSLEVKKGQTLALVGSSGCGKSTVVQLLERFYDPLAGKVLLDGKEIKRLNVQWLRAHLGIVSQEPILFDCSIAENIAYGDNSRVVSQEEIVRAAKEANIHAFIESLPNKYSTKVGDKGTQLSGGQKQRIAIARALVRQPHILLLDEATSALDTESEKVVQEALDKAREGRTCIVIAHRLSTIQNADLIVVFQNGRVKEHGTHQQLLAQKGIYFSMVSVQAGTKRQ

For the compound `CCOc1cc2ncc(C#N)c(Nc3ccc(OCc4ccccn4)c(Cl)c3)c2cc1NC(=O)/C=C/CN(C)C` [Neratinib, reference compound], in data set [1], the hepatocyte CLint came out at 7.7 µL/min/1e6 cells. Besides, growth with BT474C1 cells (Homo sapiens) was halved (GI50) at 1.3 nM.

As to `COc1cc(O[C@@H]2CCN(C)CC2(F)F)c2c(Nc3ccc(Oc4ccn5ncnc5c4)c(C)c3)ncnc2c1` [Cpd-4], on HER2, the 50% inhibitory concentration (IC50) was 44 nM. Moreover, the “Human Heps Clint” value in data set [1] is given as 20.1 (µL/min)/(10^6 cells). The compound further had a GI50 in the data set with BT474C1 cells of 67 nM.

For the compound `CS(=O)(=O)CCNCc1ccc(-c2ccc3ncnc(Nc4ccc(OCc5cccc(F)c5)c(Cl)c4)c3c2)o1` [Lapatinib], growth in the data set on BT474C1 cells (Homo sapiens) was halved (GI50) at 13 nM. This counts as double-digit nanomolar.

In the case of `CCOc1cc2ncc(C#N)c(Nc3ccc(OCc4ccccn4)c(Cl)c3)c2cc1NC(=O)/C=C/[C@H]1CCCN1C` [Pyrotinib, reference compound], the IC50 at HER2 was found to be 0.66 nM. Halving of growth in the data set on BT474C1 cells (Homo sapiens) (GI50) required 0.7 nM.

Consider `Cc1cc(Nc2ncnc3cccc(OC4CCN(C)CC4)c23)ccc1Oc1ccn2ncnc2c1` [Cpd-1], for which the “Efflux ratio P-gp @1 µM” value at P-gp (MDR1) is recorded as 1.5. Also, the IC50 is 18 nM against HER2 and above 10000 nM on wild-type EGFR. The 50% growth inhibitory concentration (GI50) in the data set on BT474C1 cells came to 91 nM.

In the case of `Cc1cc(Nc2ncnc3ccc(NC4=NC(C)(C)CO4)cc23)ccc1Oc1ccn2ncnc2c1` [Tucatinib, reference compound], the efflux ratio at 120 min, 1 µM on P-gp (MDR1) (human, MDCK-MDR1, pH 7.4) came out at 6.2. In addition, the IC50 came out at 1.7 nM against HER2 and 2770 nM at wild-type EGFR. Moreover, the efflux ratio at 1 µM in the data set with P-gp-BCRP is 64. Also, the hepatocyte CLint in data set [1] came out at 12.5 µL/min/1e6 cells. The GI50 in the data set with BT474C1 cells (Homo sapiens) amounted to 10 nM.

The term GI50 denotes the concentration giving 50% growth inhibition. A word on the IC50: it is the concentration needed to halve the response being measured. Low readings indicate greater potency, high ones weaker potency. Broadly, the efflux ratio is a quotient of directional permeabilities that is used to spot active efflux.
